Here are results for 47 molecules from the RepoRT retention time repository (doi:10.1016/j.chroma.2019.01.023).

Details in all cases: stereoisomer not certain
Data set [1] can be described thus: HILIC, Waters ACQUITY UPLC BEH Amide, 150 × 2.1 mm, 1.7 µm, 40 °C, 0.5 mL/min, estimated dead time 0.66 min; A: 5% water + 95% acetonitrile; B: 70% water + 30% acetonitrile + 10 mM ammonium formate, pH 6.5; gradient (min/%B) 0/0 2/0 20/70 23/70 24/0 31/0.
A short description of data set [2]: RP, Phenomenex Kinetex C18, 150 × 2.1 mm, 1.7 µm, 30 °C, 0.3 mL/min, estimated dead time 1.1 min; A: water + 0.1% formic acid, pH 3; B: acetonitrile + 0.1% formic acid, pH 3; gradient (min/%B) 0/2 14/100 17/100 17.1/2 25/2.
Assay in data set [3]: as above
This is another data set of the same source.

Data set [4] in a line: HILIC, Merck SeQuant ZIC-pHILIC, 150 × 2.1 mm, 5 µm, 40 °C, 0.3 mL/min, estimated dead time 1.1 min; A: acetonitrile; B: water + 2.8 mM ammonium formate, pH 9; gradient (min/%B) 0/5 1/5 10/51 13/51 13.1/5 20/5.

Take `CC1NCCc2cc(O)c(O)cc21` (centres undefined) [SALSOLINOL]: the results for the LC retention time in data set [1], in data set [2] and in data set [3] were 8.1 min, 2.16 min and 1.95 min, respectively.
As for `Cn1c(=O)c2c(ncn2C)n(C)c1=O` [CAFFEINE], the LC retention time was 1.03 min in data set [1] and 4.68 min in data set [2].
Turning to `NC(Cc1c[nH]c2ccc(O)cc12)C(=O)O` (centres undefined) [5-HYDROXYTRYPTOPHAN], the LC retention time was 8.74 min in data set [4], 3.05 min in data set [2] and 2.99 min in data set [3].
Consider `CC12CCC(=O)C=C1CCC1C2C(=O)CC2(C)C1CCC2(O)C(=O)CO` (centres undefined) [CORTISONE], for which the figures for the LC retention time in data set [1], in data set [2] and in data set [3] were 0.86 min, 7.28 min and 7.16 min, respectively.
`NC(=O)CCCCC1CCSS1` (centres undefined) [LIPOAMIDE]: the LC retention time in data set [1] is 0.88 min; in data set [2], 6.87 min.
Turning to `O=C(O)CCCCCC(=O)O` [6-CARBOXYHEXANOATE], the LC retention time in data set [4] is 6.74 min; in data set [2] it was 4.73 min; in data set [3] it was 4.56 min.
Take `O=C(O)CC(O)C(=O)O` (centres undefined) [MALATE]: the values for the LC retention time in data set [4] and in data set [2] were 9.39 min and 2.8 min, respectively.
For `CC(O)(CC(=O)O)CC(=O)O` [3-HYDROXYMETHYLGLUTARATE], the LC retention time is 8.15 min in data set [4], 2.36 min in data set [2] and 2.24 min in data set [3].
As to `CC(CCC(=O)NCC(=O)O)C1CCC2C3C(O)CC4CC(O)CCC4(C)C3CCC12C` (centres undefined) [GLYCOCHENODEOXYCHOLATE], the LC retention time is 4.94 min in data set [4], 9.28 min in data set [2] and 9.21 min in data set [3].
Turning to `CC(CCC(=O)NCC(=O)O)C1CCC2C3C(O)CC4CC(O)CCC4(C)C3CC(O)C12C` (centres undefined) [GLYCOCHOLATE], the LC retention time in data set [1] is 6.3 min; in data set [4], 5.5 min; in data set [2], 8.13 min.
For `COc1cc(C(O)CO)ccc1O` (centres undefined) [4-HYDROXY-3-METHOXYPHENYLGLYCOL], the LC retention time was 1.01 min in data set [1] and 3.21 min in data set [2].
Take `Cn1cnc2c1c(=O)[nH]c(=O)n2C` [THEOBROMINE]: the LC retention time in data set [1] was 1.32 min; in data set [4], 1.93 min; in data set [2], 3.68 min.
Turning to `CC(=O)OCC(=O)C1(O)CCC2C3CCC4=CC(=O)CCC4(C)C3C(O)CC21C` (centres undefined) [CORTISOL 21-ACETATE], the LC retention time was 0.83 min in data set [1], 8.68 min in data set [2] and 8.62 min in data set [3].
`O=C(O)C=Cc1ccc(O)cc1` [4-COUMARATE]: the LC retention time in data set [4] is 5.24 min; in data set [2], 5.65 min; in data set [3], 5.47 min.
Turning to `O=CCc1c[nH]c2ccccc12` [INDOLEACETALDEHYDE], the LC retention time in data set [1] was 1.02 min; in data set [2], 4.83 min.
Consider `O=C([O-])c1c[nH]c(=O)[nH]c1=O` [URACIL 5-CARBOXYLATE], for which the results for the LC retention time in data set [2] and in data set [3] were 1.93 min and 1.8 min, respectively.
`O=C(O)c1ccc2ccccc2n1` [2-QUINOLINECARBOXYLATE]: the LC retention time was 8.23 min in data set [1], 5.63 min in data set [4] and 4.39 min in data set [2].
For `NC(Cc1cc(I)c(Oc2ccc(O)c(I)c2)c(I)c1)C(=O)O` (centres undefined) [LIOTHYRONINE], the LC retention time is 6.19 min in data set [4], 7.42 min in data set [2] and 7.41 min in data set [3].
With `CCCCC(CC)COC(=O)c1ccccc1C(=O)OCC(CC)CCCC` (centres undefined) [BIS(2-ETHYLHEXYL)PHTHALATE], the LC retention time is 9.11 min in data set [2] and 9.02 min in data set [3].
`CC(O)C(O)C1=Nc2c(nc(N)[nH]c2=O)NC1` (centres undefined) [DIHYDROBIOPTERIN]: the LC retention time in data set [4] was 5.52 min; in data set [2], 2.14 min; in data set [3] it was 4.09 min.
Regarding `C[Se]CCC(N)C(=O)O` (centres undefined) [SELENOMETHIONINE], the LC retention time was 8.56 min in data set [1], 6.81 min in data set [4] and 1.76 min in data set [2].
For the molecule `Nc1ccc(C(=O)[O-])cc1` [4-AMINOBENZOATE], the figures for the LC retention time in data set [1], in data set [4] and in data set [2] were 1.11 min, 4.05 min and 3.83 min, respectively.
Turning to `Nc1nc2ncc(CNc3ccc(C(=O)NC(CCC(=O)O)C(=O)O)cc3)nc2c(=O)[nH]1` (centres undefined) [FOLATE], the LC retention time was 9.42 min in data set [4], 4.35 min in data set [2] and 11.3 min in data set [3].
Regarding `CC12CCC(=O)C=C1CCC1C2C(O)CC2(C)C(C(=O)CO)CCC12` (centres undefined) [CORTICOSTERONE], the LC retention time in data set [1] was 0.85 min; in data set [2], 8.14 min; in data set [3], 8.03 min.
In the case of `Cc1cc2nc3c(=O)[nH]c(=O)nc-3n(CC(O)C(O)C(O)COP(=O)(O)OP(=O)(O)OCC3OC(n4cnc5c(N)ncnc54)C(O)C3O)c2cc1C` (centres undefined) [FAD], the LC retention time in data set [4] was 8.07 min; in data set [2] it was 4.21 min.
For the molecule `NCCc1c[nH]c2ccccc12` [TRYPTAMINE], the results for the LC retention time in data set [1] and in data set [2] were 7.11 min and 5.12 min, respectively.
With `CC(=O)N1CCCC1C(=O)O` (centres undefined) [N-ACETYLPROLINE], the LC retention time is 6.05 min in data set [4], 3.52 min in data set [2] and 3.39 min in data set [3].
For `CC(C=CC1=C(C)CCCC1(C)C)=CC=CC(C)=CC(=O)[O-]` [RETINOATE], the LC retention time in data set [2] was 11.2 min; in data set [3] it was 8.2 min.
As for `CC(=O)NC(CCC(=O)O)C(=O)O` (centres undefined) [N-ACETYLGLUTAMATE], the LC retention time in data set [4] is 8.75 min; in data set [2], 1.9 min; in data set [3], 1.78 min.
The corresponding values for `O=C(O)c1ccc([O-])c(O)c1` [3,4-DIHYDROXYBENZOATE] are 8.04 min, 3.88 min and 3.77 min.
As to `O=C(O)c1cccnc1C(=O)O` [QUINOLINATE], the LC retention time is 1.76 min in data set [4], 1.5 min in data set [2] and 1.47 min in data set [3].
For the molecule `Nc1nc2c(ncn2C2OC3COP(=O)(O)OC3C2O)c(=O)[nH]1` (centres undefined) [CYCLIC GMP], the LC retention time was 8.22 min in data set [4], 2.8 min in data set [2] and 2.64 min in data set [3].
Take `CCCCCC=CCC=CCC=CCCCCC(=O)[O-]` [GAMMA-LINOLENATE]: the LC retention time in data set [2] and in data set [3] was 11.8 min in each case.
As for `CC(CCC(=O)O)C1CCC2C3CCC4CC(O)CCC4(C)C3CC(O)C12C` (centres undefined) [DEOXYCHOLATE], the LC retention time in data set [1] was 1.01 min; in data set [2], 10.8 min.
For `N[C@@H](Cc1cc(I)c(O)c(I)c1)C(=O)O` [3,5-DIIODO-L-TYROSINE], the LC retention time in data set [4] is 7.41 min; in data set [2] it was 4.95 min; in data set [3], 4.8 min.
Take `Cc1cc2nc[nH]c2cc1C` [5,6 DIMETHYLBENZIMIDAZOLE]: the LC retention time in data set [1] was 0.92 min; in data set [2] it was 4.83 min.
With `CC(CCC(=O)O)C1CCC2C3C(O)CC4CC(O)CCC4(C)C3CCC12C` (centres undefined) [CHENODEOXYCHOLATE], the LC retention time in data set [1] is 1 min; in data set [2], 10.8 min; in data set [3], 10.7 min.
As to `CC12CCC(=O)C=C1CCC1C2CCC2(C)C1CCC2(O)C(=O)CO` (centres undefined) [CORTEXOLONE], the LC retention time is 0.83 min in data set [1], 8.31 min in data set [2] and 8.32 min in data set [3].
Regarding `CC(CCC(=O)NCCS(=O)(=O)O)C1CCC2C3CCC4CC(O)CCC4(C)C3CCC12C` (centres undefined) [LITHOCHOLYLTAURINE], the LC retention time in data set [1] was 1.01 min; in data set [2] it was 9.43 min; in data set [3], 9.54 min.
For the molecule `O=C(O)c1cc(=O)c2cccc(O)c2[nH]1` [XANTHURENATE], the figures for the LC retention time in data set [4], in data set [2] and in data set [3] were 6.93 min, 4.12 min and 4.05 min, respectively.
Regarding `N[C@@H](Cc1ccc(O)c([N+](=O)[O-])c1)C(=O)O` [3-NITRO-L-TYROSINE], the LC retention time in data set [4] is 7.37 min; in data set [2], 3.56 min; in data set [3], 3.48 min.
On to `O=C(O)c1ccc([O-])cc1` [4-HYDROXYBENZOATE], for which the LC retention time in data set [2] is 4.66 min; in data set [3], 4.51 min.
In the case of `CC(C)=CCCC(C)=CCCC(C)=CCCC(C)=CCCC(C)=CCCC(C)=CCCC(C)=CCC1=C(C)C(=O)c2ccccc2C1=O` [MENAQUINONE], the LC retention time in data set [2] was 11.9 min.
For `Cc1ncc(CO)c(C(=O)O)c1O` [4-PYRIDOXATE], the LC retention time is 1.69 min in data set [4], 2.83 min in data set [2] and 2.73 min in data set [3].
For `CCCCCCSCC(NC(=O)CCC(N)C(=O)O)C(=O)NCC(=O)O` (centres undefined) [S-HEXYL-GLUTATHIONE], the LC retention time in data set [2] is 6.27 min; in data set [3], 6.22 min.
Consider `N[C@@H](Cc1ccc(O)c(O)c1)C(=O)O` [L-DOPA], for which the LC retention time was 9.15 min in data set [4], 1.63 min in data set [2] and 1.57 min in data set [3].
As to `NC(Cc1cc(I)c(Oc2cc(I)c(O)c(I)c2)c(I)c1)C(=O)O` (centres undefined) [THYROXINE], the figures for the LC retention time in data set [4], in data set [2] and in data set [3] were 6.1 min, 8.06 min and 8.07 min, respectively.
